We go through one molecule from article PMC10093605, “ABCB1 and ABCG2 Overexpression Mediates Resistance to the Phosphatidylinositol 3-Kinase Inhibitor HS-173 in Cancer Cell Lines” (Cells, 2023).

pEC50: −log10 of the molar value.

In one test the target is T1, ABCB1 (Homo sapiens, UniProt P08183).
T1 construct: membrane vesicles of ABCB1-overexpressing High Five insect cells
Kind of test: vanadate-sensitive ATPase, endpoint Pi assay, membrane vesicles. Type of test: biochemical. Particulars: read-out: concentration to produce half of the maximum stimulation. The text has this:
vanadate-sensitive ATPase, endpoint Pi assay, membrane vesicles on ABCB1 | HS-173 stimulated the ATPase activity of ABCB1 in a concentration-dependent manner

The target in a further test is T2, ABCG2 (Homo sapiens, UniProt Q9UNQ0).
T2 construct: membrane vesicles of ABCG2-overexpressing High Five insect cells; homodimer
T2 sequence (Q9UNQ0 1-655): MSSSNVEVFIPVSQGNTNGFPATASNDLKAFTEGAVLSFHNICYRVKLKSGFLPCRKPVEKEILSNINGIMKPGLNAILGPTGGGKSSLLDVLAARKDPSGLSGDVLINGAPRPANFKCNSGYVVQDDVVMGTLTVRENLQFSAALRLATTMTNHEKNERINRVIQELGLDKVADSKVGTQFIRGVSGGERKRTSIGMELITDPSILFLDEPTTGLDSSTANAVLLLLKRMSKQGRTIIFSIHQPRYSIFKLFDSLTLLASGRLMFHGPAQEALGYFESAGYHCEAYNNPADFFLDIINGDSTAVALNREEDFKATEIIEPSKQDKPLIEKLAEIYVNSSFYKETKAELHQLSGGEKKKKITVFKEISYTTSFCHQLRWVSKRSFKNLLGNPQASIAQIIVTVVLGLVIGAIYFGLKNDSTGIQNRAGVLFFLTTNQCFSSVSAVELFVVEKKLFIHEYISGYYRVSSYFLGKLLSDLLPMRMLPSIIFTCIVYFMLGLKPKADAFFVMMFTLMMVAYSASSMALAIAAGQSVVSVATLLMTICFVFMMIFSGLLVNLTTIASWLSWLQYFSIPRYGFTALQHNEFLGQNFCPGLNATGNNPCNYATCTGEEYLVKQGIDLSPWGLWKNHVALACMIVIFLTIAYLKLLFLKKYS
The test is described as above. Type of test: biochemical. Particulars: read-out: concentration to produce half of the highest stimulation. The text has this:
vanadate-sensitive ATPase, endpoint Pi assay, membrane vesicles on ABCG2 | ABCG2-mediated ATP hydrolysis was stimulated by HS-173 in a concentration-dependent manner

T1 sequence (P08183 whole entry): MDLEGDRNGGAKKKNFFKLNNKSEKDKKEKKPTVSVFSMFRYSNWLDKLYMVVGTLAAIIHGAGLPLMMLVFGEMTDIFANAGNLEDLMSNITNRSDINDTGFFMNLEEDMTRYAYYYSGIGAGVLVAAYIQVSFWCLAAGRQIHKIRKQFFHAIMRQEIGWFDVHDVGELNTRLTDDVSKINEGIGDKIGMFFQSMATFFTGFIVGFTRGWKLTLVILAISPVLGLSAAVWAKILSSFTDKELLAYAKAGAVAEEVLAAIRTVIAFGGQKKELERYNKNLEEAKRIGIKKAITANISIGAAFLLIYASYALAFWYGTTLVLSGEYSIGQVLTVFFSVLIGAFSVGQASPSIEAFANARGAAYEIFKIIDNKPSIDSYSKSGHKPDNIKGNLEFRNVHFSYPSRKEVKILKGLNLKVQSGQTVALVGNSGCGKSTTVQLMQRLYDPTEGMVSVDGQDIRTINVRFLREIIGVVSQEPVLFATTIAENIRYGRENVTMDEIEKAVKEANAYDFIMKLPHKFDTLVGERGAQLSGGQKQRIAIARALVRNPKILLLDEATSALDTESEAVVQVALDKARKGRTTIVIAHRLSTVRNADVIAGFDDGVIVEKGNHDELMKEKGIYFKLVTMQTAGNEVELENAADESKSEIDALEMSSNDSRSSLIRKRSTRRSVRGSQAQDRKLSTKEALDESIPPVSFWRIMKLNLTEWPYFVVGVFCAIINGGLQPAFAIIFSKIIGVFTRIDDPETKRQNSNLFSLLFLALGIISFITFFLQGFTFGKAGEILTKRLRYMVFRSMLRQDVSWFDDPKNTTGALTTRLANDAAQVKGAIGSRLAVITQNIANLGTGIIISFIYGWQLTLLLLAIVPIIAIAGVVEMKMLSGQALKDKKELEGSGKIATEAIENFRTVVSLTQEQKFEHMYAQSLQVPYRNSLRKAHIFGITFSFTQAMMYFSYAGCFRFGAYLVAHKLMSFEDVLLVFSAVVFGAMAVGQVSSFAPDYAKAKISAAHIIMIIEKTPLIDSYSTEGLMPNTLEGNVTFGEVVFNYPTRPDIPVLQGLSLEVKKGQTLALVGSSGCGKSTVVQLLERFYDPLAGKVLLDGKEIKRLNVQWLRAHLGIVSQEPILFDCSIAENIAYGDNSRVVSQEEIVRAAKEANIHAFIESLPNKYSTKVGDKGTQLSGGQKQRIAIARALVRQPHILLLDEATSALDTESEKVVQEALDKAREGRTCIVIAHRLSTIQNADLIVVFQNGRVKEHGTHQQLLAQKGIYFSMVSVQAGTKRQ

Consider `CCOC(=O)c1cnc2ccc(-c3cncc(NS(=O)(=O)c4ccccc4)c3)cn12` [HS-173], for which the pEC50 on ABCB1 was around 5.77; on ABCG2, around 6.40.
